According to ChEMBL document CHEMBL5055665, “Discovery of the Triazolo[1,5-a]Pyrimidine-Based Derivative WS-898 as a Highly Efficacious and Orally Bioavailable ABCB1 Inhibitor Capable of Overcoming Multidrug Resistance” (J Med Chem, 2021):
Calls of active or inactive are those of the source. The rule behind the calls is not given here.

Legend:
[1] = system: KB 3-1; experiment: Reversal of resistance to paclitaxel-induced cytotoxicity in human KB 3-1 cells assessed as reversal fold at 2 uM preincubated for 4 hrs followed by paclitaxel addition and measured after 72 hrs by MTT assay relative to paclitaxel; format: functional; details: time 76 hrs
[2] = system: SW-620; experiment: Antitumor activity against human SW-620/AD300 cells xenografted in BALB/c nude mouse assessed as increase in cells with vacuoles at 30 mg/kg/day, ig administered for 21 days in presence of paclitaxel by TUNEL staining based fluorescence microscopy; format: functional, organism-based; details: time 21.0 day
[3] = system: SW-620; experiment: Antitumor activity against human SW-620/AD300 cells xenografted in BALB/c nude mouse assessed as tumor growth inhibition at 30 mg/kg/day, ig administered for 21 days in presence of paclitaxel; format: functional; design: scale not given: the % may be the effect or the level left; details: time 21 day
[4] = system: KB 3-1; experiment: Reversal of resistance to paclitaxel-induced cytotoxicity in human KB 3-1 cells assessed as reversal fold at 1 uM preincubated for 4 hrs followed by paclitaxel addition and measured after 72 hrs by MTT assay relative to paclitaxel; format: functional; details: time 76 hrs
[5] = system: SW-620; experiment: Effect on subcellular localization of ABCB1 in human SW-620/AD300 cells at 2 uM measured after 72 hrs by Hoechst 33258 staining based immunofluorescence assay; format: functional, cell-based
[6] = system: KB-C2; experiment: Reversal of resistance to paclitaxel-induced cytotoxicity in human KB-C2 cells assessed as reversal fold at 1 uM preincubated for 4 hrs followed by paclitaxel addition and measured after 72 hrs by MTT assay relative to paclitaxel; format: functional; details: time 76 hrs
[7] = system: HEK293; experiment: Reversal of resistance to paclitaxel-induced cytotoxicity in human HEK293/ABCB1 cells assessed as reduction in paclitaxel IC50 at 1 uM preincubated for 4 hrs followed by paclitaxel addition and measured after 72 hrs by MTT assay (reference value: 91.40 +/- 23.32 nM); format: functional, cell-based
[8] = system: SW-620; experiment: Reversal of resistance to paclitaxel-induced cytotoxicity in human SW-620 cells assessed as reduction in paclitaxel IC50 at 1 uM preincubated for 4 hrs followed by paclitaxel addition and measured after 72 hrs by MTT assay (reference value: 7.69 +/- 2.78 nM); format: functional, cell-based
[9] = MRTinfinity in Sprague-Dawley rat at 10 mg/kg, iv measured up to 24 hrs by LC-MS/MS analysis; format: ADME, organism-based; details: in vivo
[10] = biological target: T1, ATP-dependent translocase ABCB1 (Homo sapiens, UniProt P08183); experiment: Binding affinity to ABCB1 in human SW-620/AD300 cells assessed as thermal stabilization of protein at 2 uM incubated for 76 hrs by CETSA-based Western blot analysis; format: cell-based; details: sw-620, 76 h
T1 sequence (P08183 whole entry): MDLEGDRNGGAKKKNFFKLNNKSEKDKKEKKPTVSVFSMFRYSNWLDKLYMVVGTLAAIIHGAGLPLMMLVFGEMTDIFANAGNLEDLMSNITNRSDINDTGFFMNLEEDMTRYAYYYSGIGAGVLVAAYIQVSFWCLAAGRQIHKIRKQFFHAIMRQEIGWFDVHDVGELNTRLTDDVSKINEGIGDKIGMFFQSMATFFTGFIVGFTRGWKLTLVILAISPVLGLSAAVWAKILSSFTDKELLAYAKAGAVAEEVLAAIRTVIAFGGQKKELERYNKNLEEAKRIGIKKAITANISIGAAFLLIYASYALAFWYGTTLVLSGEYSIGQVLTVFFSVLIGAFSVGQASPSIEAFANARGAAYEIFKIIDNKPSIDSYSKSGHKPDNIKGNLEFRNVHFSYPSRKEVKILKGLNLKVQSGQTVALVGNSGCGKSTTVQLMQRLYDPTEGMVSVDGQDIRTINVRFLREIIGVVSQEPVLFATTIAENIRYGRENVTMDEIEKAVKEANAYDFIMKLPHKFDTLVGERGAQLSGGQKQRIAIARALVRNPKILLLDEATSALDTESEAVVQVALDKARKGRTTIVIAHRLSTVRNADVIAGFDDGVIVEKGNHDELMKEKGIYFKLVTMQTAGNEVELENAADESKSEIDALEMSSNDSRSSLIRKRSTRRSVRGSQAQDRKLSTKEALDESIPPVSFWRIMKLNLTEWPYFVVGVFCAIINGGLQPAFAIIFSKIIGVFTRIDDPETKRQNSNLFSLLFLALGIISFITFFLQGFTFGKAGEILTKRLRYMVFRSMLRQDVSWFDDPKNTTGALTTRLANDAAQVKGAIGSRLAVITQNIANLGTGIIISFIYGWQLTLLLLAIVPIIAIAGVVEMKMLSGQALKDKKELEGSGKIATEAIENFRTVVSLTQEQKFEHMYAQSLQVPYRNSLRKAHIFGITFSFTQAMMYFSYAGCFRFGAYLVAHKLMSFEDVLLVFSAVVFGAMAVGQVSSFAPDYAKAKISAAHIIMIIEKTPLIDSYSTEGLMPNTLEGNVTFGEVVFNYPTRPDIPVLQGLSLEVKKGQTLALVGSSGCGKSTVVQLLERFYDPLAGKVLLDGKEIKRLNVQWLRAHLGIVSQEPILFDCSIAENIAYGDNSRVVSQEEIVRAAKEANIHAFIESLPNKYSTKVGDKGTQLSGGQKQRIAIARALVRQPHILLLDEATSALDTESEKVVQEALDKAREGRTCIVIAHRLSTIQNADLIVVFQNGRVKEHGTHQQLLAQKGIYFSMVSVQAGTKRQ

[11] = system: SW-620; experiment: Reversal of resistance to paclitaxel-induced cytotoxicity in human SW-620/AD300 cells assessed as reversal fold at 2 uM preincubated for 4 hrs followed by paclitaxel addition and measured after 72 hrs by MTT assay relative to paclitaxel; format: functional; details: time 76 hrs
[12] = system: SW-620; experiment: Effect on ABCB1 expression in human SW-620/AD300 cells at 2 uM measured upto 96 hrs by Western blot analysis; format: functional, cell-based
[13] = system: SW-620; experiment: Antitumor activity against human SW-620/AD300 cells xenografted in BALB/c nude mouse assessed as reduction in tumor weight at 30 mg/kg/day, ig administered for 21 days in presence of paclitaxel; format: functional, organism-based; details: time 21.0 day
[14] = system: SW-620; experiment: Reversal of resistance to paclitaxel-induced cytotoxicity in human SW-620 cells assessed as reduction in paclitaxel IC50 at 2 uM preincubated for 4 hrs followed by paclitaxel addition and measured after 72 hrs by MTT assay (reference value: 7.69 +/- 2.78 nM); format: functional, cell-based
[15] = Half life in Sprague-Dawley rat at 10 mg/kg, iv measured up to 24 hrs by LC-MS/MS analysis; format: ADME, organism-based; details: in vivo
[16] = biological target: T1, ATP-dependent translocase ABCB1; experiment: Activation of ABCB1 ATPase activity (unknown origin) assessed as fold stimulation of ATP hydrolysis at 0 to 20 uM using Mg-ATP as substrate incubated for 20 mins by spectrophotometric method; details: dose 0-20 µM
[17] = system: HEK293; experiment: Reversal of resistance to paclitaxel-induced cytotoxicity in human HEK293/pcDNA3.1 cells assessed as reversal fold at 1 uM preincubated for 4 hrs followed by paclitaxel addition and measured after 72 hrs by MTT assay; format: functional; details: time 76 hrs

With `Cc1cc(Nc2ccc(C(=O)/C=C/c3ccc4ccccc4c3)cc2)n2nc(SCc3nc4ccccc4[nH]3)nc2n1` the “fold change (FC)” value [1] was 1.29, the Activity [2] was “Active” and the Activity [3] was 59%. The “fold change (FC)” value [4] was 1.11, the Activity [5] was “Active” and the “fold change (FC)” value [6] was 118.34. The IC50 [7] was 9.21 nM, the IC50 [8] was 7.19 nM and the MRT inf [9] was 6.42 min. For the same molecule, the Activity [10] was “Active”, the “fold change (FC)” value [11] was 846 and the Activity [12] was “inactive”. For the same molecule, the Activity [13] was “Active”, the IC50 [14] was 6.98 nM and the half-life [15] was 85.8 min. For the same molecule, the “fold change (FC)” value [16] was 4.68 and the “fold change (FC)” value [17] was 1.14.
